This assay has as its system A673 NR0B1-luciferase reporter, viability-normalised luminescence. Description: NR0B1 reporter signal reduction in A673 cells – cell-based, luciferase luminescence, cherry-pick, EWS/Fli inhibitor project, dose response (AID 686920).
As for `C[C@H]1CN([C@@H](C)CO)S(=O)(=O)c2ccc(C#Cc3ccncc3)cc2O[C@@H]1CN(C)C(=O)Nc1ccc2c(c1)OCO2`, the AC35 is 10.1 µM. The result for `C(=N\Nc1nc2ccccc2s1)/c1ccccn1` reads 0.77 µM; that for `Cc1ccc(C(C)C)c(OCc2ccc(C(=O)N/N=C/c3ccc(O)cc3O)cc2)c1`, 1.46 µM. Then `C[C@@H]1CN([C@@H](C)CO)S(=O)(=O)c2ccc(C#CCN(C)C)cc2O[C@@H]1CN(C)Cc1ccncc1`, with 60.2 µM; and `O=C(c1nnsc1S(=O)c1ccc(Cl)cc1)N1CCOCC1` (centres undefined), with 14.1 µM. The result for `CCc1cnc(N2[C@H](C#N)[C@H](c3ccc(C#Cc4ccccc4F)cc3)[C@H]2CO)s1` reads 9.23 µM; that for `CN(C)c1ccc2c(c1)[C@@H]1C[C@@H](CC(=O)NCc3ccc(Oc4ccccc4)cc3)O[C@H](CO)[C@@H]1O2`, 5.8 µM. As for `CCCCCCCCNC(C)C(O)c1ccc(SC(C)C)cc1` (centres undefined), the AC35 is 9.79 µM. Then `O=C1c2ccc3c4c(ccc(c24)C(=O)N1c1cccc(O)c1)C(=O)N(c1cccc(O)c1)C3=O`, with 5.35 µM. Consider `C=C1C(=O)[C@@]23[C@H](O)C[C@@H]4C(C)(C)CC[C@H](O)[C@@]4(C)[C@@H]2CC[C@@H]1[C@H]3O`, for which the AC35 was 9.06 µM. Then `CCN(CC)c1ccc(C2NC(=O)c3ccccc3N2)cc1` (centres undefined), with 3.8 µM. The result for `Nc1nc(N)c2cc(Sc3ccc4ccccc4c3)ccc2n1` reads 2.1 µM.

For `CCc1ccc(/C=C2\SC(=S)N(CCCC(=O)NCCCN3CCOCC3)C2=O)cc1`, the AC35 was 1.98 µM. Then `Cc1ccsc1C(=O)OCC(=O)c1cc(C)n(C)c1C`, with 6.2 µM. Then `COc1ccc(S(=O)(=O)Nc2ccc3c(c2)C(=O)N([C@H](C)CO)C[C@@H](C)[C@@H](CN(C)CC2CCCCC2)OCCCC[C@H](C)O3)cc1`, with 14.2 µM. For the compound `COC(=O)C[C@@H]1CC[C@@H]2[C@H](COc3ccc(NC(=O)Nc4ccc(C#N)cc4)cc3C(=O)N2C)O1`, the AC35 is 62.4 µM. The result for `Nc1nc2cc3c(cc2cc1C(=O)NCCc1c[nH]c2ccccc12)OCO3` reads 4.31 µM. Regarding `COc1cccc(Sc2ccccc2/C=N/NC(N)=O)c1`, the AC35 was 2.17 µM. Then `Cc1cc(Br)ccc1N=C1C(=O)Nc2ccccc21`, with 5.12 µM; and `N#C[C@@H]1[C@H](c2ccc(C#Cc3ccccc3F)cc2)[C@@H](CO)N1C(=O)c1cccnc1`, with 5.46 µM. Then `CCC(C)Cn1c(O)cc2nn(-c3nc4ccccc4s3)c(=O)c-2c1C` (centres undefined), with 1.57 µM. Then `CC(C)(C)c1ccc(Oc2ccc(N)cn2)cc1`, with 1.2 µM; and `CCc1ccc(/C=C2\SC(=S)N(CCCC(=O)Nc3cc(C)on3)C2=O)cc1`, with 0.947 µM. Turning to `COc1cccc(O)c1CN1CCC(C(=O)Nc2ccc(-c3cccc(C)c3)cc2)CC1`, the AC35 was 29.1 µM.

With `COc1ccccc1NC(=O)N1CCCCN2[C@H](CO)[C@H](c3ccc(-c4cccc(C)c4)cc3)[C@H]2C1`, the AC35 is 8.3 µM.

With `N#CC(=C1C=CC(=NO)C(Cl)=C1)c1ccccc1`, the AC35 was 5.85 µM. The result for `CC(=O)ON=C1C=CC(=C(C#N)c2ccccc2)C=C1` reads 13.3 µM; that for `Nc1nc(=S)c2[nH]cnc2[nH]1`, 2.5 µM; that for `C[C@H]1CN([C@@H](C)CO)C(=O)c2cc(NC(=O)C3CCCCC3)ccc2O[C@H]1CN(C)Cc1ccc(C(=O)Nc2ccccc2N)cc1`, 4.8 µM.

Turning to `O=C(O)c1ccc(N/N=C/c2ccc3c(c2)OCO3)cc1`, the AC35 is 0.644 µM. Then `O=C(O)c1ccccc1C(=O)Nc1ccc(Oc2cccc3ccccc23)cc1`, with 2.28 µM; and `C[C@@H]1CN([C@@H](C)CO)C(=O)c2cccc(N(C)C)c2O[C@@H]1CN(C)Cc1ccc(C(=O)Nc2ccccc2N)cc1`, with 39.8 µM. The result for `COc1cc2c(cc1NC(=O)CN(C)Cc1ccc(OC)c(OC)c1)oc1ccccc12` reads 8.33 µM. Take `O=C(NC1CCCC1)C(c1ccccc1)n1c(CSCCOc2ccccc2)nc2ccccc21` (centres undefined): the AC35 was 2.19 µM. Then `CCc1ccc(S(=O)(=O)c2ccc(-n3nc(C)cc3N)cc2)cc1`, with 31.4 µM; and `Cc1ccc(S(=O)(=O)N(C)C[C@@H]2Oc3ccc(NC(=O)CCCCCC(=O)Nc4ccccc4N)cc3CC(=O)N([C@@H](C)CO)C[C@@H]2C)cc1`, with 11 µM. The result for `COc1ccc(NS(=O)(=O)c2cc(NC(=O)CNC(=O)c3cccc(OC)c3)ccc2C)cc1` reads 66.3 µM; that for `C[C@H]1CN([C@@H](C)CO)C(=O)Cc2cc(NC(=O)CCCCCC(=O)Nc3ccccc3N)ccc2O[C@H]1CN(C)Cc1ccc(Oc2ccccc2)cc1`, 5.63 µM; that for `O=C1NC2C(=CC(O)C(O)C2O)c2cc3c(cc21)OCO3` (centres undefined), 0.429 µM. Regarding `Cc1c(Cl)cnc(NC(=O)COC(=O)c2ccc3ncsc3c2)c1Cl`, the AC35 was 7.23 µM. Take `CCc1ccc(N2C=C(C(=O)OC)C(c3ccc(OC)cc3)C(C#N)=C2N)cc1` (centres undefined): the AC35 was 5.38 µM. Take `CC(=O)OC1CC2(O)C3CCC4CC(O)CCC4(C)C3CCC2(C)C1C1=CC(=O)OC1` (centres undefined): the AC35 is 0.231 µM. On to `C[C@H]1CN([C@@H](C)CO)C(=O)c2cc(NS(=O)(=O)c3ccc(Cl)cc3)ccc2O[C@H]1CN(C)Cc1ccc(C(=O)Nc2ccccc2N)cc1`, for which the AC35 was 14.5 µM. Then `Cc1ccsc1/C=N/Nc1cccc(C(=O)O)c1`, with 0.832 µM; and `COc1ccc(S(=O)(=O)N2CC[C@@H]3[C@@H](CO)Nc4ccc(-c5ccc(C#N)cc5)cc4[C@@H]32)cc1`, with 0.625 µM; and `CC1(C)N=C(N)N=C(N)N1c1ccc(OCCCOc2ccccc2)c(Cl)c1`, with 2.61 µM. The result for `C(=N\Nc1ccc2ccccc2n1)/c1ccc2c(c1)OCCO2` reads 0.728 µM; that for `O=c1c2ccccc2nc(/C=C/c2cc(Br)ccc2O)n1CCCO`, 23.9 µM; that for `Cc1cc(C)c2sc(NNC(=O)c3ccc(S(=O)(=O)N4CCc5ccccc5C4)cc3)nc2c1`, 5.12 µM.

For the compound `CN(C[C@H]1N[C@@H](CO)[C@@H]1c1ccc(C2=CCCC2)cc1)C(=O)c1cccc(F)c1`, the AC35 was 3.48 µM. Take `COc1ccc(NC(=O)N(C)[C@H]2C[C@H]3c4[nH]c5ccccc5c4CCN3C(=O)[C@H]2CO)cc1`: the AC35 is 12 µM. In the case of `COc1ccc(OC)c(Cc2cnc3nc(N)nc(N)c3c2C)c1`, the AC35 is 0.0922 µM.

On to `C[C@H]1O[C@@H](O[C@H]2[C@@H](O)C[C@H](O[C@H]3[C@@H](O)C[C@H](O[C@H]4CC[C@@]5(C)[C@H](CC[C@@H]6[C@@H]5C[C@@H](O)[C@]5(C)[C@@H](C7=CC(=O)OC7)CC[C@]65O)C4)O[C@@H]3C)O[C@@H]2C)C[C@H](O)[C@@H]1O`, for which the AC35 was 0.0886 µM. Then `C[C@H]1CN([C@@H](C)CO)C(=O)c2cc(NS(=O)(=O)c3ccc(Cl)cc3)ccc2O[C@H]1CN(C)Cc1ccc(Cl)c(Cl)c1`, with 40.5 µM; and `COc1cc2c(cc1OC)C(C)N(C(=O)c1cc(Cl)nc(Cl)c1)CC2` (centres undefined), with 6.06 µM; and `COc1ccc(C2=Nn3c(nnc3-c3ccccc3OC)SC2)cc1OCC1CC1`, with 6.71 µM. Take `Cc1ccc(N2C(=O)c3cccc4c(N)ccc(c34)C2=O)c2cccnc12`: the AC35 was under 0.03 µM.

With `O=C(C[C@@H]1C[C@H]2c3cc(NC(=O)CC4CC4)ccc3O[C@H]2[C@H](CO)O1)NCc1ccccc1F`, the AC35 is 40.3 µM.

For the compound `COc1ccc(/C=C2/NC(=O)N(CC(=O)Nc3cccc(C)c3)C2=O)cc1O`, the AC35 was 9.76 µM.

Consider `N#C[C@H]1N[C@H](CO)[C@H]1c1ccc(C#Cc2ccccc2F)cc1`, for which the AC35 is 0.137 µM. `O=C(COC(=O)c1ccc[nH]c1=O)Nc1ccc(N2CCCCC2)cc1`: the AC35 was 0.283 µM. The result for `O=C(NC(=O)c1ccccc1)Nc1ccccc1` reads 12.8 µM; that for `CCc1ccc(/C=C2\SC(=S)N(CCCC(=O)N3CCN(C)CC3)C2=O)cc1`, 21.3 µM. Then `Cc1ccc2c(c1)C(=O)N1[C@H]3c4cc(Br)ccc4OC[C@@H]3[C@H](c3ccccc3)[C@]1(C)C(=O)N2`, with 13.7 µM; and `CCCN1C(=O)/C(=C/c2nc3ccccc3c(=O)[nH]2)c2ccccc21`, with 32.5 µM; and `O=C(N/N=C/c1cnc(N2CCCCC2)s1)c1ccc(C(F)(F)F)cc1`, with 56.8 µM.

`CCOC(=O)[C@]12Cc3ccc(C)cc3[C@H]1N(C1CCCCC1)C(=O)c1ccccc12`: the AC35 is 5.49 µM. The result for `O=C1NC(=O)N(Cc2ccccc2)C(=O)/C1=C\C=C\c1ccco1` reads 10.4 µM; that for `COc1ccc2oc(-c3ccccc3)cc(=O)c2c1`, 8.22 µM. The result for `COc1ccc([Si](C)(C)[C@H]2[C@H](CCO)O[C@@]3(C(=O)N(c4ccccc4)c4ccccc43)[C@@H]2C)cc1` reads 7.79 µM; that for `O=C(c1cccc(S(=O)(=O)NCc2ccccc2)c1)N1CCN(c2ccccc2)CC1`, 11.6 µM; that for `C[C@]12CC[C@H](O)C[C@H]1CC[C@@H]1[C@@H]2CC[C@]2(C)[C@@H](C3=CC(=O)OC3)CC[C@]12O`, 0.395 µM. Take `Cc1c(CCOC(=O)CC23CC4CC(CC(C)(C4)C2)C3)sc[n+]1CC(=O)c1ccccc1`: the AC35 was 16.9 µM. Turning to `C[C@@H]1CN([C@H](C)CO)C(=O)c2cc(NS(=O)(=O)c3ccc(Cl)cc3)ccc2O[C@@H]1CN(C)Cc1ccc(Cl)c(Cl)c1`, the AC35 is 29.1 µM. As to `C[C@@H]1CN([C@H](C)CO)S(=O)(=O)c2ccc(C#CC(C)(C)O)cc2O[C@H]1CN(C)Cc1ccc(-c2ccccc2)cc1`, the AC35 was 4.22 µM. `COc1ccc(C(C)(O)c2nc(-c3cccc(F)c3)cs2)cc1` (centres undefined): the AC35 is 8.04 µM. The result for `C(=N\Nc1ccc2ccccc2n1)/c1ccc2c(c1)OCO2` reads 5.76 µM; that for `N#C[C@H]1[C@H](c2ccc(-c3ccccc3F)cc2)[C@@H](CO)N1C(=O)Cc1ccccc1`, 3.31 µM. Then `CCc1ccc(/C=C2\SC(=S)N(CCCC(=O)NC3=NCCS3)C2=O)cc1`, with 0.588 µM; and `C[C@H]1CCCCO[C@H](CN(C)Cc2ccc(C(F)(F)F)cc2)[C@@H](C)CN([C@@H](C)CO)C(=O)c2cc(NC(=O)Nc3ccccc3)ccc2O1`, with 19.4 µM. As to `C=CC[n+]1c(-c2ccc(C)cc2)csc1Nc1ccc(NC(C)=O)cc1`, the AC35 is 15.6 µM. For the compound `C/C(=N\NC(=O)c1n[nH]c2c1CCC2)c1cccs1`, the AC35 was 1.78 µM. Then `O=C1NC(=O)N(c2ccccc2)C(=O)/C1=C\C=C\c1ccccc1`, with 8.31 µM; and `C(=N\Nc1nc2ccccc2[nH]1)/c1ccccn1`, with 5.58 µM.

The record behind these values is PubChem BioAssay AID686920 (Broad Institute, 2013).
